Data from ChEMBL document CHEMBL5029155, “Design, Synthesis, and Biological Evaluation of Stable Colchicine-Binding Site Tubulin Inhibitors 6-Aryl-2-benzoyl-pyridines as Potential Anticancer Agents” (J Med Chem, 2021).
The source made the active and inactive calls. No cut-off for these calls is given here.

Columns and labels:
A375/TxR [1] = assay: Induction of cell cycle arrest in human A375/TxR cells assessed as decrease in accumulation at G1 phase measured for 24 hrs by PI staining based flow cytometry analysis; type: functional
[2] = Tmax in NSG mouse at 10 mg/kg, ip; type: ADME, organism-based; conditions: in vivo
[3] = Half life in NSG mouse at 10 mg/kg, ip; type: ADME, organism-based; conditions: in vivo
[4] = Systemic toxicity in human A375/TxR cells xenografted in SCID mouse tumor model assessed as pathological change in liver at 10 to 20 mg/kg, ip by H and E staining based analysis; type: organism-based; conditions: in vivo, dose 10-20 mg/kg
CYP2C8 = biological target: T1, CYP2C8 (Homo sapiens, UniProt P10632); assay: Inhibition of CYP2C8 in human liver microsomes using amodiaquine as substrate at 10 uM; type: ADME; conditions: probe amodiaquine
T1 sequence (P10632 whole entry): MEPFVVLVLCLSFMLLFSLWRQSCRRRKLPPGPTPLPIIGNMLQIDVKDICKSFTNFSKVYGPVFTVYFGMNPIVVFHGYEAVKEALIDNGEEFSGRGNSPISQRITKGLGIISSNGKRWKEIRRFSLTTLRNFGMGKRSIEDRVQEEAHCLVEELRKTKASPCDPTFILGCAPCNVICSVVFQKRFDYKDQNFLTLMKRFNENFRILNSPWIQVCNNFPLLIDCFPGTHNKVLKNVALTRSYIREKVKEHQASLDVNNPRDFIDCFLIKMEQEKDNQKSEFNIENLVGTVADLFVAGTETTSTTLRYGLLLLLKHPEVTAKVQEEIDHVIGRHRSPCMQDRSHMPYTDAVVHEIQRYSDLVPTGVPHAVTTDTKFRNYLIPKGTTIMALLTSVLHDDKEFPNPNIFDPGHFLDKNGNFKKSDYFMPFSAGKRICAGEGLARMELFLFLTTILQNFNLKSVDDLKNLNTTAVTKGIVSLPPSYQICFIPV

[5] = Metabolic stability in mouse liver microsomes assessed as intrinsic clearance in presence of NADPH regenerating system by UPLC-MS analysis; type: ADME, Microsome; conditions: read-out: CLH
[6] = Systemic toxicity in human A375/TxR cells xenografted in SCID mouse tumor model assessed as pathological change in heart at 10 to 20 mg/kg, ip by H and E staining based analysis; type: organism-based; conditions: in vivo, dose 10-20 mg/kg
[7] = Metabolic stability in human liver microsomes assessed as half life in presence of NADPH regenerating system by UPLC-MS analysis; type: ADME, Microsome; conditions: microsomes
M14 [8] = assay: Cytotoxicity against paclitaxel resistant human M14 cells measured after 72 hrs […]; type: functional, cell-based; conditions: M14, 72 h
Salmonella typhimurium = assay: Mutagenicity in Salmonella typhimurium TA1537 by Ames test; type: toxicity, organism-based; conditions: salmonella enterica subsp. enterica serovar typhimurium
[9] = Induction of apoptosis in human A375/TxR cells assessed as apoptotic cells at 5 nM measured for 24 hrs by annexin VFITC /PI staining based analysis (reference value: […]); type: functional
RPMI-7951 = assay: Antiproliferative activity against human RPMI-7951 cells assessed as cell growth inhibition incubated for 72 hrs by MTS assay; type: functional, cell-based; conditions: RPMI-7951, 72 h
M14 [10] = assay: Cytotoxicity against human M14 cells measured after 72 hrs […]; type: functional, cell-based; conditions: M14, 72 h
M14 [11] = assay: Antiproliferative activity against human M14 cells assessed as cell growth inhibition incubated for 72 hrs by MTS assay; type: functional, cell-based; conditions: M14, 72 h
CYP3A = assay: Inhibition of CYP3A in human liver microsomes using testosterone as substrate at 10 uM; type: ADME; conditions: probe testosterone
A-375 = assay: Antiproliferative activity against human A-375 cells assessed as cell growth inhibition incubated for 72 hrs by MTS assay; type: functional, cell-based; conditions: A-375, 72 h
A375/TxR [12] = assay: Antitumor activity against human A375/TxR cells xenografted in SCID mouse assessed as tumor necrosis at 10 to 20 mg/kg, ip by H and E staining based analysis; type: functional, organism-based; conditions: dose 10-20 mg/kg
Sus scrofa = species on record: Sus scrofa; assay: Inhibition of porcine brain tubulin polymerization assessed as inhibition of microtubule polymerization at 10 uM measured for 1 hrs by microplate reader method
CYP2C9 = CYP2C9 (Homo sapiens, UniProt P11712); assay: Inhibition of CYP2C9 in human liver microsomes using diclofenac as substrate at 10 uM; type: ADME; conditions: probe diclofenac
Sequence of CYP2C9 (P11712 whole entry): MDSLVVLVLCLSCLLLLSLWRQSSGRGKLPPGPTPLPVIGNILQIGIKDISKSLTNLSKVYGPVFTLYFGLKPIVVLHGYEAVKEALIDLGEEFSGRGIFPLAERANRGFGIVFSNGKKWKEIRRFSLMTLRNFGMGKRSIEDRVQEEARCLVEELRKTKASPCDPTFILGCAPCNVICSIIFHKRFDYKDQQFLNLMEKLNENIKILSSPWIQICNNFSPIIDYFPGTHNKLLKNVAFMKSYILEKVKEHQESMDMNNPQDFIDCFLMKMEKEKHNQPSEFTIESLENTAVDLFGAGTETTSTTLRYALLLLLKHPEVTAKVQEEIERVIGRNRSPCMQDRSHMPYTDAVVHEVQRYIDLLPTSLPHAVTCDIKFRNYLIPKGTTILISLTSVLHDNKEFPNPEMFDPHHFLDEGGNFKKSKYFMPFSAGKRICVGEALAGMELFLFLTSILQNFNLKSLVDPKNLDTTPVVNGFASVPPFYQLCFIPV

[13] = Cytotoxicity against paclitaxel resistant human A-375/TxR cells measured after 72 hrs […]; type: functional, cell-based; conditions: A375/TxR
MDA-MB-231 = assay: Cytotoxicity against human MDA-MB-231 cells measured after 72 hrs […]; type: functional, cell-based; conditions: MDA-MB-231, 72 h
[14] = Anticlonogenic activity against paclitaxel resistant human A-375 cells assessed as inhibition of colony formation at 5 nM treated for 7 days by crystal violet staining based microscopic analysis; type: functional, A375/TxR; design: scale not given: the % may be the effect or the level left; conditions: time 7 day
[15] = Antitumor activity against human A375/TxR cells xenografted in SCID mouse assessed as tumor growth inhibition at 10 mg/kg, ip administered 3 times/week for 18 days; type: functional; design: scale not given: the % may be the effect or the level left; conditions: time 18 day
A375/TxR [16] = assay: Induction of cell cycle arrest in human A375/TxR cells assessed as decrease in accumulation at S phase measured for 24 hrs by PI staining based flow cytometry analysis; type: functional

COc1cc(C(=O)c2nc(-c3ccc(C)c(O)c3)ccc2F)cc(OC)c1OC
Activity (A375/TxR [1]): Dose-Dependent Effect
Tmax [2]: 10.2 min
half-life [3]: 263 min
Activity [4]: Non-Toxic
inhibition at 10 µM (CYP2C8): 92.5%
CLint scaled [5]: 4.6 mL/min/kg
Activity [6]: Non-Toxic
t1/2 [7]: 29.4 min
IC50 (M14 [8]): 4.9 nM
Activity (Salmonella typhimurium): Non-Toxic
Activity [9]: 45.4%
IC50 (RPMI-7951): 2.4 nM
IC50 (M14 [10]): 2.8 nM
IC50 (M14 [11]): 1.9 nM
inhibition at 10 µM (CYP3A): 51.8%
IC50 (A-375): 1.8 nM
Activity (A375/TxR [12]): Active
inhibition (Sus scrofa): Active
inhibition at 10 µM (CYP2C9): 54.7%
IC50 [13]: 5.3 nM
IC50 (MDA-MB-231): 5.8 nM
Activity [14]: 95%
Activity [15]: 44.4%
Activity (A375/TxR [16]): Dose-Dependent Effect
